Test results published in US20240262803A1, “COMPOUNDS, COMPOSITIONS AND METHODS OF TREATING DISORDERS” (Chungdu Anticancer Bioscience Ltd, priority 2021, published 2024).
“Also recorded” adds a separate entry of the source. Read-outs that look alike come from different tables or passages of the source.

How the values were obtained:
[1] = tested on: lung cancer cell line A549; assay: Minimal effective concentration that elicits polyploidy, A549; assay type: cell-based; conditions: Homo sapiens, read-out: MECP: Minimal effective concentration that elicits polyploidy
[2] = tested on: human lung adenocarcinoma cell line NCI-H23; assay: Xenograft assay, NCI-H23; assay type: in vivo; conditions: NCI-H23 subcutaneous xenograft, Nu/Nu mice, oral gavage twice a day for 9 days, FIG. 3
Description: (§1) Xenografts were initiated in immunocompromised (Nu/Nu) mice with the human lung adenocarcinoma cell line NCI-H23 (FIG. 3) and the human colon cancer cell line HCT116 (FIG. 4). Five million cells were injected subcutaneously into each mouse and treatment was initiated when the average tumor volumes reached 150 mm3 (n=5/groups). Tumor-bearing mice were randomized into different groups to receive either vehicle or indicated compounds. The compounds were administered through oral gavage twice a day for 9 days. Day 0 on the x-axis indicates the day that treatment was initiated. For these experiments, all compounds were first dissolved in DMSO and then diluted 1:10 into a mixture containing 50% PEG300 and 49% PBS, 1% Tween 80, pH2.2. 100 ul of drug solution was administered with each dose. Tumor volumes were determined once every three days and are calculated from digital caliper raw data by using the formula: Volume (mm3)=(L×W^2)/2. The value W (Width) is the smaller of two perpendicular tumor axes and the value L (Length) is the larger of two perpendicular axes. Mean tumor volume growth curves and means are calculated for each treatment group.

[3] = tested on: cervical cancer cell line Hela; assay: MTT assay of cellular proliferation, Hela; assay type: cell-based; conditions: Homo sapiens, read-out: EC50: Concentration that inhibits 50% of proliferation
Summary of the method: (§2)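 First, mid-log cells are seeded in DMEM containing 5% FBS and grown 15˜24 h to 20˜30% confluence. Next, compounds are added across 1 nM to 10 μM. Finally, MTT is given for 3˜4 h, formazan is dissolved and read at A570 to derive EC50.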

[4] = tested on: breast cancer cell line MDA-MB-231; assay: Minimal effective concentration that elicits polyploidy, MDA-MB-231; assay type: cell-based; conditions: Homo sapiens, read-out: MECP: Minimal effective concentration that elicits polyploidy
[5] = tested on: gastric cancer cell line NCI-N87; assay: Minimal effective concentration that elicits polyploidy, NCI-N87; assay type: cell-based; conditions: Homo sapiens, read-out: MECP: Minimal effective concentration that elicits polyploidy
[6] = tested on: colon cancer cell line SW460; assay: MTT assay of cellular proliferation, SW460; assay type: cell-based; conditions: Homo sapiens, SW480; read-out: EC50: Concentration that inhibits 50% of proliferation
Summary of the method: as §2

[7] = tested on: lung cancer cell line A549; assay: MTT assay of cellular proliferation, A549; assay type: cell-based; conditions: Homo sapiens, read-out: EC50: Concentration that inhibits 50% of proliferation
Summary of the method: as §2

[8] = tested on: breast cancer cell line MDA-MB-231; assay: MTT assay of cellular proliferation, MDA-MB-231; assay type: cell-based; conditions: Homo sapiens, read-out: EC50: Concentration that inhibits 50% of proliferation
Summary of the method: as §2

[9] = tested on: lung cancer cell line NCI-H23; assay: MTT assay of cellular proliferation, NCI-H23; assay type: cell-based; conditions: Homo sapiens, read-out: EC50: Concentration that inhibits 50% of proliferation
Summary of the method: as §2

[10] = tested on: gastric cancer cell line NCI-N87; assay: MTT assay of cellular proliferation, NCI-N87; assay type: cell-based; conditions: Homo sapiens, read-out: EC50: Concentration that inhibits 50% of proliferation
Summary of the method: as §2

[11] = tested on: human colon cancer cell line HCT116; assay: Xenograft assay, HCT116; assay type: in vivo; conditions: HCT116 subcutaneous xenograft, Nu/Nu mice, oral gavage twice a day for 9 days, FIG. 4
Description: as §1

[12] = tested on: RPEMYC^H2B-GFP cells; assay: Mechanism-informed phenotypic screening assay (mitotic arrest, polyploidy; GE IN-Cell Analyzer 2000); assay type: cell-based; conditions: 20 nM to 20 μM, 24, 48 or 72 hours, read-out: Mitotic Arrest (≥5%)
[13] = tested on: liver cancer cell line T2 HCC; assay: MTT assay of cellular proliferation, T2 HCC; assay type: cell-based; conditions: Mus musculus, read-out: EC50: Concentration that inhibits 50% of proliferation
Summary of the method: as §2

[14] = tested on: SW480; assay: Minimal effective concentration that elicits polyploidy, SW480; assay type: cell-based; conditions: Homo sapiens, read-out: MECP: Minimal effective concentration that elicits polyploidy
[15] = tested on: lung cancer cell line NCI-H23; assay: Minimal effective concentration that elicits polyploidy, NCI-H23; assay type: cell-based; conditions: Homo sapiens, read-out: MECP: Minimal effective concentration that elicits polyploidy
[16] = tested on: colon cancer cell line HCT116; assay: Minimal effective concentration that elicits polyploidy, HCT116; assay type: cell-based; conditions: Homo sapiens, HCT-116, read-out: MECP: Minimal effective concentration that elicits polyploidy
[17] = tested on: cervical cancer cell line Hela; assay: Minimal effective concentration that elicits polyploidy, Hela; assay type: cell-based; conditions: Homo sapiens, read-out: MECP: Minimal effective concentration that elicits polyploidy
[18] = tested on: colon cancer cell line HCT116; assay: MTT assay of cellular proliferation, HCT116; assay type: cell-based; conditions: Homo sapiens, HCT-116, read-out: EC50: Concentration that inhibits 50% of proliferation
Summary of the method: as §2

[19] = tested on: liver cancer cell line T2 HCC; assay: Minimal effective concentration that elicits polyploidy, T2 HCC; assay type: cell-based; conditions: Mus musculus, read-out: MECP: Minimal effective concentration that elicits polyploidy
[20] = tested on: RPEMYC^H2B-GFP cells; assay: Mechanism-informed phenotypic screening assay (mitotic arrest, polyploidy; GE IN-Cell Analyzer 2000); assay type: cell-based; conditions: 20 nM to 20 μM, 24, 48 or 72 hours, read-out: Min. Effective conc. for polyploidy (≥5%)
Summary of the method: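 Cells expressing Histone 2B-EGFP (RPEMYC^H2B-GFP) were plated 18-24 h before exposure to compounds at 20 nM to 20 μM. At 24, 48 or 72 h, imaging scored mitotic arrest or change in DNA content. Value is the lowest concentration giving polyploid accumulation at 48 h.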

[21] = tested on: lung cancer cell line NCI-H596; assay: MTT assay of cellular proliferation, NCI-H596; assay type: cell-based; conditions: Homo sapiens, read-out: EC50: Concentration that inhibits 50% of proliferation
Description: (§3) Six lung cancer cell lines (NCI-H23, NCI-H460, NCI-H596, NCI-H2170, Calu-6 and A549), two colon cancer cell lines (HCT116 and SW460), one breast cancer cell line MDA-MB-231, one gastric cancer cell line NCI-N87, one prostate cancer cell line DU145, one cervical cancer cell line Hela, and one glioblastoma cell line T98G were obtained from ATCC. The T2 HCC cell line was derived from a mouse liver cancer model initiated by a transgene of MYC (Reference). All cell lines were cultured in DMEM (Gibco, Cleveland, TN, USA) supplemented with 5% fetal bovine serum (Gibco), penicillin (100 U/mL)-streptomycin (100 μg/mL) (Gibco, Cat. No. 15140-122), 2 mM L-glutamine (Gibco, 200 mM solution, Cat. No. 25030081), and 1 mM sodium pyruvate (Gibco, 100 mM solution, Cat. No. 11360070) at 37° C. in a humidified incubator that was maintained at 5% CO2.
(§4) The MTT assay measures cellular metabolic activity as a proxy for cell viability and involves the conversion of the water-soluble yellow dye MTT [3-(4,5-dimethylthiazol-2-yl)-2,5-diphenyltetrazolium bromide] into an insoluble purple formazan by the action of mitochondrial reductase. Formazan is then solubilized and its concentration is determined by measuring the optical density (OD) value at a wavelength of 570 nm. The value is in proportional to the number of live cells with excellent linearity up to ˜10^6 cells per well. The MTT assay was used to determine the EC50 value, the concentration of a compound that leads to 50% inhibition of cellular proliferation. Briefly, cells were split when growing to the mid-Log phase. Cells in 100 μL of culture medium were seeded into each well of 96-well microplates and cultivated for 15˜24 hours to reach a confluence of 20˜30% and were then exposed to drugs at concentrations ranging from 1 nM to 10 μM. At the endpoint, 20 μL of a MTT stock solution in DMSO (5 mg/mL) was added to each well that contains […] of DMEM. The microplates were left in the cell culture incubator for 3˜4 h before subjected to solubilization and determination of formazan at A570 in a microplate reader (BioTek ELX808iu). […] Therefore, these compounds might hold a broad utility in the treatment of a large variety of human malignancies.

[22] = tested on: glioblastoma cell line T98G; assay: MTT assay of cellular proliferation, T98G; assay type: cell-based; conditions: Homo sapiens, read-out: EC50: Concentration that inhibits 50% of proliferation
Description: as §3, §4

[23] = tested on: lung cancer cell line Calu-6; assay: Minimal effective concentration that elicits polyploidy, Calu-6; assay type: cell-based, human
[24] = tested on: prostate cancer cell line DU145; assay: MTT assay of cellular proliferation, DU145; assay type: cell-based; conditions: Homo sapiens, DU-145, read-out: EC50: Concentration that inhibits 50% of proliferation
Description: as §3, §4

[25] = tested on: lung cancer cell line NCI-H2170; assay: Minimal effective concentration that elicits polyploidy, NCI-H2170; assay type: cell-based, human
[26] = tested on: glioblastoma cell line T98G; assay: Minimal effective concentration that elicits polyploidy, T98G; assay type: cell-based, human
[27] = tested on: lung cancer cell line Calu-6; assay: MTT assay of cellular proliferation, Calu-6; assay type: cell-based; conditions: Homo sapiens, read-out: EC50: Concentration that inhibits 50% of proliferation
Description: as §3, §4

[28] = tested on: lung cancer cell line NCI-H596; assay: Minimal effective concentration that elicits polyploidy, NCI-H596; assay type: cell-based, human
[29] = tested on: lung cancer cell line NCI-H2170; assay: MTT assay of cellular proliferation, NCI-H2170; assay type: cell-based; conditions: Homo sapiens, read-out: EC50: Concentration that inhibits 50% of proliferation
Description: as §3, §4

[30] = tested on: prostate cancer cell line DU145; assay: Minimal effective concentration that elicits polyploidy, DU145; assay type: cell-based, human
[31] = tested on: lung cancer cell line NCI-H460; assay: MTT assay of cellular proliferation, NCI-H460; assay type: cell-based; conditions: Homo sapiens, read-out: EC50: Concentration that inhibits 50% of proliferation
Description: as §3, §4

[32] = tested on: lung cancer cell line NCI-H460; assay: Minimal effective concentration that elicits polyploidy, NCI-H460; assay type: cell-based, human

| Compound | minimal effective concentration [1] [µM] | tumor growth (tumor volume) [2] | EC50 [3] [nM] | minimal effective concentration [4] [µM] | minimal effective concentration [5] [µM] | EC50 [6] [nM] | EC50 [7] [nM] | EC50 [8] [nM] | EC50 [9] [nM] | EC50 [10] [nM] | tumor growth (tumor volume) [11] | minimal effective concentration [12] [µM] | EC50 [13] [nM] | minimal effective concentration [14] [µM] | minimal effective concentration [15] [µM] | minimal effective concentration [16] [µM] | minimal effective concentration [17] [µM] | EC50 [18] [nM] | minimal effective concentration [19] [µM] | minimal effective concentration [20] [µM] | further results |
| --- | --- | --- | --- | --- | --- | --- | --- | --- | --- | --- | --- | --- | --- | --- | --- | --- | --- | --- | --- | --- | --- |
| COc1cc(OC)cc(Oc2ncccc2-c2ccnc(OC)c2)c1 [Compound 32, 2-(3,5-dimethoxyphenoxy)-2′-methoxy-3,4′-bipyridine] | 0.001 to 1 | suppressing the tumor growth | 1 to 1000 | 0.001 to 1 | 0.001 to 1 | 1 to 1000 | 1 to 1000 | 1 to 1000 | 1 to 1000 | 1 to 1000 | suppressing the tumor growth | 1 | 1 to 1000 | 0.001 to 1 | 0.001 to 1 | 0.001 to 1 | 0.001 to 1 | 1 to 1000 | 0.001 to 1 | 1 |  |
| CNC(=O)c1cc(Oc2ncccc2-c2ccnc(OC)c2)cc(OC(F)(F)F)c1 [Compound 29, 3-((2′-methoxy-[3,4′-bipyridin]-2-yl)oxy)-N-methyl-5-(trifluoromethoxy)benzamide] | 0.001 to 1 | suppress the growth; also recorded: suppressing the tumor growth | 1 to 1000 | 0.001 to 1 | 0.001 to 1 | 1 to 1000 | 1 to 1000 | 1 to 1000 | 1 to 1000 | 1 to 1000 | suppress the growth; also recorded: suppressing the tumor growth | 1 | 1 to 1000 | 0.001 to 1 | 0.001 to 1 | 0.001 to 1 | 0.001 to 1 | 1 to 1000 | 0.001 to 1 | 1 |  |
| COc1cc(OC)cc(Oc2ncccc2-c2ccnc(N)n2)c1 [Compound 19, 4-(2-(3,5-dimethoxyphenoxy)pyridin-3-yl)pyrimidin-2-amine] | 1 to 10 |  | 1 to 1000 | 0.001 to 1 | 0.001 to 1 |  | 1000 to 10000 | 1 to 1000 | 1 to 1000 | 1 to 1000 |  | 1 | 1 to 1000 |  | 0.001 to 1 | 0.001 to 1 | 0.001 to 1 | 1 to 1000 | 0.001 to 1 | 1 | EC50 [21]: 1 to 1000 nM; EC50 [22]: 1 to 1000 nM; MECP: Minimal effective concentration that elicits polyploidy [23]: A (A: 1 nM < conc. ≤ 1 μM); EC50 [24]: 1000 to 10000 nM; MECP: Minimal effective concentration that elicits polyploidy [25]: A (A: 1 nM < conc. ≤ 1 μM); MECP: Minimal effective concentration that elicits polyploidy [26]: A (A: 1 nM < conc. ≤ 1 μM); EC50 [27]: 1 to 1000 nM; MECP: Minimal effective concentration that elicits polyploidy [28]: A (A: 1 nM < conc. ≤ 1 μM); EC50 [29]: 1 to 1000 nM; MECP: Minimal effective concentration that elicits polyploidy [30]: B (B: 1 μM < conc. ≤ 10 μM); EC50 [31]: 1000 to 10000 nM; MECP: Minimal effective concentration that elicits polyploidy [32]: A (A: 1 nM < conc. ≤ 1 μM) |
| COc1cc(NC(C)=O)cc(Oc2ncccc2-c2ccnc(OC)c2)c1 [Compound 34] | 0.001 to 1 |  | 1 to 1000 | 0.001 to 1 | 0.001 to 1 | 1 to 1000 | 1 to 1000 | 1 to 1000 | 1 to 1000 | 1 to 1000 |  | 1 | 1 to 1000 | 0.001 to 1 | 0.001 to 1 | 0.001 to 1 | 0.001 to 1 | 1 to 1000 | 0.001 to 1 | 1 |  |
